# Assays:
# Human melanocortin (MC5) = target: T1, Human melanocortin (MC5) (Homo sapiens, UniProt P33032); test: Radioligand binding, human melanocortin MC5 membranes, FlashPlate, [125I]-NDP-αMSH; details: compound at 10 μM; for A5: inhibition of radioligand binding: [125I]-NDP-αMSH; for A5 radioligand binding inhibition: human melanocortin MC5 membranes
# T1 construct: purchased Perkin Elmer Biosignal
# Summary of the method: (§1)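 Cloned human receptor membranes were coated onto FlashPlate wells and incubated with radioligand and compound (added from a 0.5 mM DMSO daughter plate) for 1 hour at room temperature in the dark. Scintillation counting gave percent inhibition, with DMSO defining total and reference ligand defining non-specific binding.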
# [1] = target: T2, Human melanin-concentrating hormone (MCH1) (Homo sapiens, UniProt Q99705); test: Radioligand binding, human melanin-concentrating hormone MCH1 membranes, FlashPlate, [125I]-S36057; details: compound at 10 μM; for A6 radioligand binding inhibition: human MCH1 membranes
# T2 construct: purchased Perkin Elmer Biosignal
# T2 sequence (Q99705 whole entry): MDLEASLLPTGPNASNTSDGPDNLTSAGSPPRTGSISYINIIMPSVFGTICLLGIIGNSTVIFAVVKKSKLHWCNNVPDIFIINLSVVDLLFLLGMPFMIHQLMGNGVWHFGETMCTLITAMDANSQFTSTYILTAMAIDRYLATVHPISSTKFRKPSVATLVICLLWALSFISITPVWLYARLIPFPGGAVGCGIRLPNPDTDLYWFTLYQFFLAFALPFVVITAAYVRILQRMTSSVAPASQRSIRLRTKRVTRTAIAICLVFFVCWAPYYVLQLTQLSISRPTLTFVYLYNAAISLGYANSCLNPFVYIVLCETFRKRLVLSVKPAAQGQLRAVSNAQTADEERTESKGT
# Summary of the method: as §1
# Mouse urotensin (mUR2) = target: T3, Mouse urotensin (mUR2) (Mus musculus, UniProt Q8VIH9); test: Radioligand binding, mouse urotensin mUR2 membranes, FlashPlate, [125I]-Urotensin II; details: compound at 10 μM; for A11: inhibition of radioligand binding: [125I]-Urotensin II; for A11 radioligand binding inhibition: mouse urotensin mUR2 membranes
# T3 construct: purchased Perkin Elmer Biosignal
# T3 sequence (Q8VIH9 1-385): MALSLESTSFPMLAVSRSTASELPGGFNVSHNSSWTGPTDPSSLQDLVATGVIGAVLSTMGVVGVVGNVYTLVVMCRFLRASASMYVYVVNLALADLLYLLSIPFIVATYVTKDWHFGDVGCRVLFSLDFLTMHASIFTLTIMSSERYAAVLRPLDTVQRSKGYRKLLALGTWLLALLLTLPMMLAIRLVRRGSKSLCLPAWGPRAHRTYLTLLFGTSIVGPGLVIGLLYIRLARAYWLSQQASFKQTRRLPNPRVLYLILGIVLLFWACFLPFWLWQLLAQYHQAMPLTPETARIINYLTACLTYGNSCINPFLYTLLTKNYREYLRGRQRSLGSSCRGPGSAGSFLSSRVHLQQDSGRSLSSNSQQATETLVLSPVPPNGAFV
# Summary of the method: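 Cloned mouse urotensin (mUR2) receptor membranes from Perkin Elmer Biosignal were immobilized in FlashPlate microplates using a proprietary coating. Each well got 19.5 μl buffer, then 0.5 μl of DMSO, reference ligand, or compound. Adding 5 μl of [125I]-Urotensin II, diluted to 5× final concentration in binding buffer, started binding. Plates were sealed with TopSeal-A and incubated 1 hour at room temperature in the dark. Wells were counted for 30 seconds each on a TopCount after a 60-second delay, and percentage inhibition was calculated.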
# Human δ-opioid (DOP) = target: T4, Human δ-opioid (DOP) (Homo sapiens, UniProt P41143); test: Radioligand binding, human δ-opioid (DOP) membranes, FlashPlate, [3H]-Bremazocine; details: compound at 10 μM; for A1: inhibition of radioligand binding: [3H]-Bremazocine; for A1 radioligand binding inhibition: human δ-opioid (DOP) membranes
# T4 construct: purchased Perkin Elmer Biosignal
# T4 sequence (P41143 whole entry): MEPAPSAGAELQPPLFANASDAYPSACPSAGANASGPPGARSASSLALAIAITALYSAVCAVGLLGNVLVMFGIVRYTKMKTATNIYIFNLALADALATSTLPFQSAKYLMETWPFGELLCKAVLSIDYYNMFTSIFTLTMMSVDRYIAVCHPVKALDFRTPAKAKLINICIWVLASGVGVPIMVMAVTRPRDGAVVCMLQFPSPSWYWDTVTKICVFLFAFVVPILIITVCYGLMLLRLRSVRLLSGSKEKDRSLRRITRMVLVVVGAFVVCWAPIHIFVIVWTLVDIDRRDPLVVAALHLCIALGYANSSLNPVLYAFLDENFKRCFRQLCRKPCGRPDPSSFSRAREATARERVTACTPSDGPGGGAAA
# Summary of the method: as §1
# Human Melanocortin (MC4) = target: T5, Human Melanocortin (MC4) (Homo sapiens, UniProt P32245); test: Radioligand binding, human melanocortin MC4 membranes, FlashPlate, [125I]-NDP-αMSH; details: compound at 10 μM; for A4: inhibition of radioligand binding: [125I]-NDP-αMSH; for A4 radioligand binding inhibition: human melanocortin MC4 membranes
# T5 construct: purchased Perkin Elmer Biosignal
# T5 sequence (P32245 whole entry): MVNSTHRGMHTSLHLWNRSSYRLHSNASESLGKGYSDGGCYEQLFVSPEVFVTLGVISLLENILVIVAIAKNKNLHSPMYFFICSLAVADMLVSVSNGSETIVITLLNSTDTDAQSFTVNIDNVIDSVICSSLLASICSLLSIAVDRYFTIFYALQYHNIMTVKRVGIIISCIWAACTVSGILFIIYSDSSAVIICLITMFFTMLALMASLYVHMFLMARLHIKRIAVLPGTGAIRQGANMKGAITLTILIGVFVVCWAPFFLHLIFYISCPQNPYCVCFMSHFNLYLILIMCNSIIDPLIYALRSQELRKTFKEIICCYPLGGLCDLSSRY
# Summary of the method: as §1
# Human Melanocortin (MC3) = target: T6, Human Melanocortin (MC3) (Homo sapiens, UniProt P41968); test: Radioligand binding, human melanocortin MC3 membranes, FlashPlate, [125I]-NDP-αMSH; details: compound at 10 μM; for A3: inhibition of radioligand binding: [125I]-NDP-αMSH; for A3 radioligand binding inhibition: human melanocortin MC3 membranes
# T6 construct: purchased Perkin Elmer Biosignal
# T6 sequence (P41968 whole entry): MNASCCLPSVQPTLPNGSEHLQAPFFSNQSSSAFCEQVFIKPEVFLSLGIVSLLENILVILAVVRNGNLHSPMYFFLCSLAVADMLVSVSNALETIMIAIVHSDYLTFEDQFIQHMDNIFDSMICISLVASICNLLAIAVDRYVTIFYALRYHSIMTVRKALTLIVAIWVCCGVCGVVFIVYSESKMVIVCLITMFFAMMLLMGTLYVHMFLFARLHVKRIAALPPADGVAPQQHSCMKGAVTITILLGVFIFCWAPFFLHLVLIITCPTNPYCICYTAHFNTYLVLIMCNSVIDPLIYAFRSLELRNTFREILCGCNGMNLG
# Summary of the method: as §1
# Human κ-Opioid (KOP) = target: T7, Human κ-Opioid (KOP) (Homo sapiens, UniProt P41145); test: Radioligand binding, human κ-opioid (KOP) membranes, filtration, [3H]-Diprenorphine; details: compound at 10 μM; for A2: inhibition of radioligand binding: [3H]-Diprenorphine; for A2 radioligand binding inhibition: human κ-opioid (KOP) membranes
# T7 construct: purchased Perkin Elmer Biosignal
# T7 sequence (P41145 whole entry): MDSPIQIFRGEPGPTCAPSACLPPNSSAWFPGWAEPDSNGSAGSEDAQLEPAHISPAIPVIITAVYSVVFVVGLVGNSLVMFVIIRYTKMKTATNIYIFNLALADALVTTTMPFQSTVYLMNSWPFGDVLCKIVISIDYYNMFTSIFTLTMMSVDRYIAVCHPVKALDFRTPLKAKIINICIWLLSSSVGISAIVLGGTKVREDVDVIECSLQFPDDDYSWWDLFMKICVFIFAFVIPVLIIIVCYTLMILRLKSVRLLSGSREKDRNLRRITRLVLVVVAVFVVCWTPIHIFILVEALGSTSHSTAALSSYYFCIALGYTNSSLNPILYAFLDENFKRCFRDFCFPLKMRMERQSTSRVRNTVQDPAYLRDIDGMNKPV
# Summary of the method: (§2)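 Membranes from cloned human receptors were incubated with compound and radioligand for 1 hour at room temperature. Bound ligand was collected on 0.3% PEI-soaked filters, washed with cold 50 mM Tris-HCl pH 7.4, and counted by scintillation. Percent inhibition was computed against DMSO totals and reference-ligand nonspecific wells.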
# Human neurokinin (NK1) = target: T8, Human neurokinin (NK1) (Homo sapiens, UniProt P25103); test: Radioligand binding, human neurokinin NK1 membranes, filtration, [125I]-Substance P; details: compound at 10 μM; for A8: inhibition of radioligand binding: [125I]-Substance P; for A8 radioligand binding inhibition: human neurokinin NK1 membranes
# T8 construct: purchased Perkin Elmer Biosignal
# T8 sequence (P25103 whole entry): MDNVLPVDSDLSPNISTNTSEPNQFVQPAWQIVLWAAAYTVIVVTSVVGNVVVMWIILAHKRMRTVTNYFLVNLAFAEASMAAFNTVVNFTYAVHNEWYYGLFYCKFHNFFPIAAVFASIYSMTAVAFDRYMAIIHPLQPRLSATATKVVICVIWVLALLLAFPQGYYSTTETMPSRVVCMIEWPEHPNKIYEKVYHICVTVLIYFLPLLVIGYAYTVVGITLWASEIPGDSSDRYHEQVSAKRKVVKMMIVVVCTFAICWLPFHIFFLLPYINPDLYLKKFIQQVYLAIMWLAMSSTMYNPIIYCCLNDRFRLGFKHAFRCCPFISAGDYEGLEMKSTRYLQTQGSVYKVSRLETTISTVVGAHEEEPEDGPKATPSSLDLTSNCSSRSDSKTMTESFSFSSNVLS
# Summary of the method: as §2
# Human μ-opioid (MOP) = target: T9, Human μ-opioid (MOP) (Homo sapiens, UniProt P35372); test: Radioligand binding, human μ-opioid (MOP) membranes, FlashPlate, [3H]-Naloxone; details: compound at 10 μM; for A7: inhibition of radioligand binding: [3H]-Naloxone; for A7 radioligand binding inhibition: human μ-opioid (MOP) membranes
# T9 construct: purchased Perkin Elmer Biosignal
# T9 sequence (P35372 whole entry): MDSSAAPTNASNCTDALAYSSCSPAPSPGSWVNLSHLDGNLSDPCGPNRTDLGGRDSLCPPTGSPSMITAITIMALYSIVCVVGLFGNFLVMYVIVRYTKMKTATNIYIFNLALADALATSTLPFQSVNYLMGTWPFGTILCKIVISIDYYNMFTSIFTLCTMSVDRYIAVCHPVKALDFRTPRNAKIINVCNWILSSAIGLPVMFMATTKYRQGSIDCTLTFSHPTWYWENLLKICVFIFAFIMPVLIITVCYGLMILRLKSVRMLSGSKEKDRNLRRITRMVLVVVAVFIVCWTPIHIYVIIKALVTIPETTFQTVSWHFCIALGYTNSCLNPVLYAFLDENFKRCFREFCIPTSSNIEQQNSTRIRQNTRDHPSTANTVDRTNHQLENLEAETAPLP
# Summary of the method: as §1
# Human opioid (ORL1) = target: T10, Human opioid (ORL1) (Homo sapiens, UniProt P41146); test: Radioligand binding, human opioid ORL1 membranes, FlashPlate, [125I]-Nociceptin; details: compound at 10 μM; for A10: inhibition of radioligand binding: [125I]-Nociceptin
# T10 construct: purchased Perkin Elmer Biosignal
# T10 sequence (P41146 whole entry): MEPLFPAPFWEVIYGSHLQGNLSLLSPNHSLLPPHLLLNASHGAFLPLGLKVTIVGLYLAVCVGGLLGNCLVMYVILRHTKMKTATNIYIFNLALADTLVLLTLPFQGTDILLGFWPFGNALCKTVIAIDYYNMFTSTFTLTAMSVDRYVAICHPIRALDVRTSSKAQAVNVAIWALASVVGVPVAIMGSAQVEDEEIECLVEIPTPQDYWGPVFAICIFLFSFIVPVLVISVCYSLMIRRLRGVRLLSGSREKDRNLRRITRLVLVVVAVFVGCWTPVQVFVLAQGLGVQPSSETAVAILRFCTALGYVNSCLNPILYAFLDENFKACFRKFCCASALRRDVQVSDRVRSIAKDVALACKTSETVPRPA
# Summary of the method: as §1
# [2] = target: T11, Human neuropeptide Y (NPY-Y1) (Homo sapiens, UniProt P25929); test: Radioligand binding, human neuropeptide Y NPY-Y1 membranes, FlashPlate, [125I]-PYY; details: compound at 10 μM; for A9: inhibition of radioligand binding: [125I]-PYY
# T11 construct: purchased Perkin Elmer Biosignal
# T11 sequence (P25929 1-384): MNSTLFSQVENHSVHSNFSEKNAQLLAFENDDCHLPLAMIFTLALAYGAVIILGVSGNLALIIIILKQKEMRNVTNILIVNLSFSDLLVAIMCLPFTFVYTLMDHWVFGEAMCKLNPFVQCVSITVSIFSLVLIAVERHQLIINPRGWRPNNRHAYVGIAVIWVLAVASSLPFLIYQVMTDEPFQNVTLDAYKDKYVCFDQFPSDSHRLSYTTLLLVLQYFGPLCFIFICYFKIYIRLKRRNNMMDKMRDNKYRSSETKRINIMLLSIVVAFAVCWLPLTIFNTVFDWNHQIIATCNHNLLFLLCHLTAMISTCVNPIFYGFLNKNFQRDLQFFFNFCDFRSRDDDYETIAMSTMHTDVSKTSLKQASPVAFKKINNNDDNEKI
# Summary of the method: as §1
# T1 sequence (P33032 whole entry): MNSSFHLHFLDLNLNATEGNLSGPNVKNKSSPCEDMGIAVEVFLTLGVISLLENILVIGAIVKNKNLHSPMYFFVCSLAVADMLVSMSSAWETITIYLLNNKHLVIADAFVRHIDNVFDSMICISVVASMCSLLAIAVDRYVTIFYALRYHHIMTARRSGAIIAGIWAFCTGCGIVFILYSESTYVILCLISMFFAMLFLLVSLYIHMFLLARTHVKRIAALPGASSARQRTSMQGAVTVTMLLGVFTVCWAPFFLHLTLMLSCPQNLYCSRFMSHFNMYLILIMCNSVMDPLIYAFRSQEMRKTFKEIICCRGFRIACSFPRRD
SMILES,A5: inhibition of radioligand binding (Human melanocortin (MC5); FlashPlate),"A6: inhibition of radioligand binding ([1]; [125I]-S36057, FlashPlate)",A11: inhibition of radioligand binding (Mouse urotensin (mUR2); FlashPlate),A1: inhibition of radioligand binding (Human δ-opioid (DOP); FlashPlate),A4: inhibition of radioligand binding (Human Melanocortin (MC4); FlashPlate),A3: inhibition of radioligand binding (Human Melanocortin (MC3); FlashPlate),A2: inhibition of radioligand binding (Human κ-Opioid (KOP); filtration),A8: inhibition of radioligand binding (Human neurokinin (NK1); filtration),A7: inhibition of radioligand binding (Human μ-opioid (MOP); FlashPlate),A5 radioligand binding inhibition (Human melanocortin (MC5)),A6 radioligand binding inhibition [1],A11 radioligand binding inhibition (Mouse urotensin (mUR2)),A1 radioligand binding inhibition (Human δ-opioid (DOP)),A4 radioligand binding inhibition (Human Melanocortin (MC4)),A3 radioligand binding inhibition (Human Melanocortin (MC3)),A2 radioligand binding inhibition (Human κ-Opioid (KOP)),A8 radioligand binding inhibition (Human neurokinin (NK1)),A7 radioligand binding inhibition (Human μ-opioid (MOP)),A10 radioligand binding inhibition (Human opioid (ORL1); human ORL1 membranes),A9 radioligand binding inhibition ([2]; human NPY-Y1 membranes),also measured
COCC1OC(OCCc2ccccc2)C(NC(=O)CCCNC(=N)N)C(OCc2ccc(Cl)cc2)C1O (stereo not drawn) [compound 223],+ (“+” indicates greater than 50% inhibition at 10 μM),+ (“+” indicates greater than 50% inhibition at 10 μM),− (“−” indicates less than 50% inhibition at 10 μM),− (“−” indicates less than 50% inhibition at 10 μM),+ (“+” indicates greater than 50% inhibition at 10 μM),− (“−” indicates less than 50% inhibition at 10 μM),− (“−” indicates less than 50% inhibition at 10 μM),+ (“+” indicates greater than 50% inhibition at 10 μM),− (“−” indicates less than 50% inhibition at 10 μM),,,,,,,,,,,,A10: inhibition of radioligand binding (Human opioid (ORL1); FlashPlate): − (“−” indicates less than 50% inhibition at 10 μM); A9: inhibition of radioligand binding ([2]; FlashPlate): − (“−” indicates less than 50% inhibition at 10 μM)
COCC1OC(OCc2ccccc2)C(NC(=O)CCN)C(OCc2ccc3ccccc3c2)C1O (stereo not drawn) [compound 190],+ (“+” indicates greater than 50% inhibition at 10 μM),− (“−” indicates less than 50% inhibition at 10 μM),− (“−” indicates less than 50% inhibition at 10 μM),− (“−” indicates less than 50% inhibition at 10 μM),− (“−” indicates less than 50% inhibition at 10 μM),− (“−” indicates less than 50% inhibition at 10 μM),− (“−” indicates less than 50% inhibition at 10 μM),+ (“+” indicates greater than 50% inhibition at 10 μM),− (“−” indicates less than 50% inhibition at 10 μM),,,,,,,,,,,,A10: inhibition of radioligand binding (Human opioid (ORL1); FlashPlate): − (“−” indicates less than 50% inhibition at 10 μM); A9: inhibition of radioligand binding ([2]; FlashPlate): − (“−” indicates less than 50% inhibition at 10 μM)
COC[C@H]1OC(OCc2ccc(Cl)cc2)[C@H](NC(=O)CNC(=N)N)[C@@H](OCc2ccc3ccccc3c2)[C@@H]1O (stereo partly drawn) [compound 31],,,,,,,,,,+ (“+” indicates greater than 50% inhibition at 10 μM),− (“−” indicates less than 50% inhibition at 10 μM),− (“−” indicates less than 50% inhibition at 10 μM),− (“−” indicates less than 50% inhibition at 10 μM),− (“−” indicates less than 50% inhibition at 10 μM),+ (“+” indicates greater than 50% inhibition at 10 μM),− (“−” indicates less than 50% inhibition at 10 μM),− (“−” indicates less than 50% inhibition at 10 μM),+ (“+” indicates greater than 50% inhibition at 10 μM),− (“−” indicates less than 50% inhibition at 10 μM),− (“−” indicates less than 50% inhibition at 10 μM),
CO[C@H]1[C@H](O)[C@@H](COCc2ccc(Cl)cc2)OC(OCc2ccc(-c3ccccc3)cc2)[C@@H]1NC(=O)CNC(=N)N (stereo partly drawn) [compound 62],,,,,,,,,,+ (“+” indicates greater than 50% inhibition at 10 μM),+ (“+” indicates greater than 50% inhibition at 10 μM),− (“−” indicates less than 50% inhibition at 10 μM),− (“−” indicates less than 50% inhibition at 10 μM),+ (“+” indicates greater than 50% inhibition at 10 μM),+ (“+” indicates greater than 50% inhibition at 10 μM),− (“−” indicates less than 50% inhibition at 10 μM),+ (“+” indicates greater than 50% inhibition at 10 μM),− (“−” indicates less than 50% inhibition at 10 μM),+ (“+” indicates greater than 50% inhibition at 10 μM),− (“−” indicates less than 50% inhibition at 10 μM),
COC[C@H]1OC(OCCc2ccccc2)[C@H](NC(=O)CCCN)[C@@H](OCc2ccccc2)[C@@H]1O (stereo partly drawn) [compound 47],,,,,,,,,,− (“−” indicates less than 50% inhibition at 10 μM),− (“−” indicates less than 50% inhibition at 10 μM),− (“−” indicates less than 50% inhibition at 10 μM),− (“−” indicates less than 50% inhibition at 10 μM),− (“−” indicates less than 50% inhibition at 10 μM),− (“−” indicates less than 50% inhibition at 10 μM),− (“−” indicates less than 50% inhibition at 10 μM),+ (“+” indicates greater than 50% inhibition at 10 μM),− (“−” indicates less than 50% inhibition at 10 μM),− (“−” indicates less than 50% inhibition at 10 μM),− (“−” indicates less than 50% inhibition at 10 μM),
NCCC(=O)NC1C(OCc2ccc3ccccc3c2)OC(COCc2ccccc2)C(O)C1OCc1ccccc1 (stereo not drawn) [compound 451],,,,,,,,,,,,,,,,,,,,,"A5: inhibition of radioligand binding (Human melanocortin (MC5); human MC5 membranes, 10 µM): − (“−” indicates less than 50% inhibition at 10 μM); A6: inhibition of radioligand binding ([1]; [125I]-S36057, human MCH1 membranes): − (“−” indicates less than 50% inhibition at 10 μM); A11: inhibition of radioligand binding (Mouse urotensin (mUR2); mouse mUR2 membranes): − (“−” indicates less than 50% inhibition at 10 μM); A1: inhibition of radioligand binding (Human δ-opioid (DOP); human DOP membranes): − (“−” indicates less than 50% inhibition at 10 μM); A4: inhibition of radioligand binding (Human Melanocortin (MC4); human MC4 membranes): + (“+” indicates greater than 50% inhibition at 10 μM); A3: inhibition of radioligand binding (Human Melanocortin (MC3); human MC3 membranes): − (“−” indicates less than 50% inhibition at 10 μM); A2: inhibition of radioligand binding (Human κ-Opioid (KOP); human KOP membranes): − (“−” indicates less than 50% inhibition at 10 μM); A8: inhibition of radioligand binding (Human neurokinin (NK1); human NK1 membranes): + (“+” indicates greater than 50% inhibition at 10 μM); A7: inhibition of radioligand binding (Human μ-opioid (MOP); human MOP membranes): − (“−” indicates less than 50% inhibition at 10 μM); A10: inhibition of radioligand binding (Human opioid (ORL1); human ORL1 membranes): − (“−” indicates less than 50% inhibition at 10 μM); A9: inhibition of radioligand binding ([2]; human NPY-Y1 membranes): − (“−” indicates less than 50% inhibition at 10 μM)"
